Reference: article PMC6270263, “Factors Influencing the Antifolate Activity of Synthetic Tea-Derived Catechins” (Molecules, 2013)

Tested on: SK-MEL-28 melanoma cells
Assay: Apoptosis assay (cell death detection ELISA) with or without site markers
Format: cell-based, human
Conditions: SK-MEL-28, 10 µM, alone
Source text: Serum is commonly used as a supplement in cell culture media. It supports cell growth and product formation by providing a broad spectrum of macromolecules, attachment factors, nutrients, and hormone and growth factors. The most commonly used animal serum supplement is foetal bovine serum, FBS (alternatively called foetal calf serum—FCS). Because BSA is a major component of FBS, the in vitro activity of catechins on tumour cells might be affected by their interaction with BSA. The effect of albumin binding on the biological activity of polyphenols is unclear. Does the bound ligand have some biological activity or does the polyphenol have to be in the free form to be active? To answer this question and to determine whether BSA-catechin interactions increase or decrease catechin anti-tumour activity, the proapoptotic activity of TMCG on SK-MEL-28 melanoma cells was probed in the presence of warfarin or ibuprofen [Figure 5(b)]. […] Because the binding of catechins to BSA seems to control drug availability, the lower affinity of TMCG and TMECG for serum albumins, with respect to natural tea catechins, might contribute to the high in vivo anti-tumour activity of these methylated synthetic catechins. […]
The human melanoma cell line SK-MEL-28 was obtained from American Type Culture Collection (ATCC, Manassas, VA, USA) and was maintained in Eagles’s Minimum Essential Medium (EMEM) supplemented with 10% (v/v) FBS and antibiotics at 37 °C in a humidified atmosphere containing 7.5% CO2. Cell viability was evaluated using the MTT cell proliferation assay. Cells were evaluated for apoptosis using a cell death detection ELISA (Cell Death Detection ELISAPLUS, Roche Diagnostics, Barcelona, Spain). […] The amount of nucleosomes is photometrically quantified at 405 nm by the peroxidase activity retained in the immunocomplexes. Apoptosis was defined as the specific enrichment of mono- and oligonucleosomes in the cytoplasm and was calculated by dividing the absorbance of treated samples with the absorbance of untreated samples after correcting for the number of cells. […]

For `CC(=O)CC(c1ccccc1)c1c(O)c2ccccc2oc1=O` (centres unmarked) [warfarin, reference compound], the “Induction of apoptosis, compound alone” value was “did not induce apoptosis”.
With `CC(C)Cc1ccc(C(C)C(=O)O)cc1` (centres unmarked) [ibuprofen, reference compound] the “Induction of apoptosis, compound alone” value was “did not induce apoptosis”.
